Where “and” joins values, the source holds several entries; their conditions need not be identical. Identical values can stand only once.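 Grown in 96-well plates, cells were treated for 48 hours with each compound at five concentrations. Insufficient inhibition: endpoint recorded as highest concentration tested. GI50 is the concentration that inhibits growth by half. TGI marks complete inhibition of growth.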
What was measured:
Assay in all cases: DTP human tumour cell line panel, 48 h
A549 NSCLC = tested on: A549 NSCLC
SF-539 CNS = tested on: SF-539 CNS
M14 melanoma = tested on: M14 melanoma
HT29 colon = tested on: HT29 colon
UO-31 renal = tested on: UO-31 renal
ACHN renal = tested on: ACHN renal
SW-620 colon = tested on: SW-620 colon
K-562 leukemia = tested on: K-562 leukemia
SN12C renal = tested on: SN12C renal
RXF 393 renal = tested on: RXF 393 renal

SMILES	GI50 (A549 NSCLC)	TGI (A549 NSCLC) [µM]	GI50 (SF-539 CNS)	TGI (SF-539 CNS) [µM]	GI50 (M14 melanoma)	TGI (M14 melanoma) [µM]	GI50 (HT29 colon)	TGI (HT29 colon) [µM]	GI50 (UO-31 renal)	TGI (UO-31 renal) [µM]	GI50 (ACHN renal)	TGI (ACHN renal) [µM]	GI50 (SW-620 colon)	TGI (SW-620 colon) [µM]	GI50 (K-562 leukemia)	TGI (K-562 leukemia) [µM]	GI50 (SN12C renal)	TGI (SN12C renal) [µM]	GI50 (RXF 393 renal) [µM]	TGI (RXF 393 renal) [µM]
CC(=O)Oc1ccc(C2(c3ccc(OC(C)=O)cc3)C(=O)Nc3ccccc32)cc1	33.8 µM and 42.9 µM	> 100	26.3 µM and 50.2 µM	> 100	34.4 µM and 38.2 µM	> 100	30.4 µM and 45.3 µM	> 100	24 µM and 27.5 µM	> 100	18.9 µM and 30.6 µM	> 100	36.7 µM and 31.5 µM	> 100	17.3 µM and 42.2 µM	> 87.3	0.202 µM and 0.283 µM	> 68.3	–	–
C1=C2CNCC3=Cc4ccc5ccccc5c4OC23Oc2c1ccc1ccccc21	4.48 µM	20.5	3.36 µM	14.9	2.17 µM	5.08	–	–	3.54 µM	21.5	–	–	2.52 µM	10.5	2.95 µM	21.2	4.22 µM	20.1	1.79	6.16
C/C(=N\n1c(N)c(C#N)c(-c2ccc(Cl)cc2)c(C#N)c1=O)c1ccncc1	7.58 µM	65.4	–	–	> 100 µM	> 100	> 100 µM	> 100	7.33 µM	> 100	20.9 µM	49.5	31.5 µM	> 100	> 100 µM	> 100	9.88 µM	41.1	–	–
c1ccc(NC[Si]23OCCN(CCO2)CCO3)cc1	–	> 100	–	> 100	–	–	–	> 100	–	> 100	–	> 100	–	> 100	–	> 100	–	> 100	–	> 100
NC(N)=N/N=C/c1c(-c2ccc(Cl)c([N+](=O)[O-])c2)nc2n1CCS2	16.1 µM	77.9	7.4 µM	26.5	15.4 µM	29.1	6.13 µM	30.9	26 µM	89	15.7 µM	37.2	–	–	3.96 µM	16.6	2.29 µM	9.04	–	–
C=C(CNCCc1ccc(O)cc1)[C@@H]1CC[C@]2(CO)CC[C@]3(C)[C@H](CC[C@@H]4[C@@]5(C)CCC(N)C(C)(C)[C@@H]5CC[C@]43C)[C@@H]12 (some centres not stated)	1.66 µM	3.13	1.56 µM	2.94	1.75 µM	3.33	0.46 µM	1.81	1.42 µM	2.76	1.78 µM	3.19	0.915 µM	2.27	–	–	1.56 µM	3.02	1.08	2.36
C[C@@]12CCCC(=O)N1[C@@H](CO)C(c1ccccc1)O2 (some centres not stated)	–	> 100	–	> 100	–	–	–	> 100	–	–	–	> 100	–	> 100	–	> 100	–	> 100	–	> 100
CCN(CC)CCOc1ccc(/C=C2\CC3C4CC=C5C[C@@H](OC(C)=O)CC[C@]5(C)C4CC[C@]3(C)C2=O)cc1OC (some centres not stated)	17.7 µM	44.9	–	–	2.09 µM	4.36	4.07 µM	> 100	11.1 µM	23.1	9.84 µM	21.5	–	–	1.29 µM	23.6	12.6 µM	30.1	2.58	7.77
COc1ccc(C(=O)C[C@]2(O)C(=O)Nc3c(Cl)ccc(Cl)c32)cc1	0.766 µM	> 100	0.478 µM	3.99	0.321 µM	> 100	0.376 µM	–	1.47 µM	> 100	0.774 µM	> 100	0.379 µM	> 100	0.258 µM	> 100	0.87 µM	> 100	–	–
CC1(C)OC(COCCOCCCCCO)C(COCCOCCCCCO)O1 (configuration not stated)	–	> 100	–	–	–	> 100	–	> 100	–	> 100	–	> 100	–	> 100	–	> 100	–	> 100	–	> 100
CCOC(=O)C[C@@]12CCCNC1(C)CCc1ccccc12 (some centres not stated)	–	> 100	–	> 100	–	> 100	–	> 100	–	> 100	–	> 100	–	> 100	–	> 100	–	> 100	–	–
C[C@@H]1C/C=C\C(=O)O[C@H](/C=C/C#C/C=C/C(C)(C)[C@@H](O)c2cccc(O)c2Br)[C@@H](C)/C=C/[C@H](C)C[C@H](OC(N)=O)C1	0.0332 µM	19.5	–	–	0.0236 µM	0.0639	0.029 µM	5.77	0.0227 µM	0.0799	0.0405 µM	14.5	0.0348 µM	15.8	0.0332 µM	> 32.7	0.0542 µM	14	0.636	7.81
COc1ccc(CC2=NCCc3cc(OC)c(OC)cc32)cc1Br	–	> 100	–	> 100	–	–	–	> 100	–	> 100	–	> 100	–	> 100	–	93.2	–	> 100	–	90.6
CCCCCCCCCCCCCCCCS(=O)(=O)c1ccc(NN)cc1	–	> 10	–	> 10	–	> 10	–	> 10	–	–	–	> 10	–	> 10	–	> 10	–	> 10	–	> 10
C=CC(=O)Nc1cccc(Nc2nc(Nc3ccc(OCCOC(F)F)cc3)ncc2F)c1	3.56 µM	20.2	–	–	2.54 µM	18.8	2.67 µM	13.5	1.29 µM	9.56	1.35 µM	10.4	3.27 µM	> 100	3.07 µM	> 100	2.54 µM	16.2	1.09	4.42
c1cnc2[nH]cc(-c3csc(-c4cn(CCCN5CCCCC5)c5ccccc45)n3)c2c1	1.97 µM	3.63	1.68 µM	3.1	1.76 µM	3.45	1.75 µM	3.44	1.18 µM	2.5	1.66 µM	3.05	–	–	1.74 µM	3.52	1.68 µM	3.22	–	–
COc1ccc2[nH]c3c(=O)[nH]ncc3c2c1	–	> 100	–	> 100	–	> 100	–	> 100	–	> 100	–	> 100	–	> 100	–	> 100	–	–	–	–
O=C(/C=C/c1cn(-c2ccccc2)nc1-c1ccc([N+](=O)[O-])cc1)c1ccc(Cl)cc1	–	–	2.19 µM	–	–	–	–	–	–	–	3.64 µM	> 43.6	–	–	0.0883 µM	2.73	4.54 µM	> 100	1.92	5.19
O=C1C(c2ccccc2)=C(c2ccccc2)[C@H](c2ccccc2)[C@]1(Cc1nnn(-c2ccc([N+](=O)[O-])cc2)c1N1CCOCC1)c1ccccc1	–	> 37.5	–	> 37.5	–	> 37.5	–	> 37.5	–	–	–	> 37.5	–	> 37.5	–	> 37.5	–	> 37.5	–	> 37.5
O=C(O)[C@@H]1CCCC[C@@H]1C(=O)N(C1CCCCC1)C1CCCCC1	–	> 100	–	> 100	–	> 100	–	> 100	–	> 100	–	> 100	–	> 100	–	> 100	–	> 100	–	–
COC(=O)C1(F)C(=O)NC(=O)NC1OC (configuration not stated)	–	> 100	–	> 100	–	–	–	> 100	–	> 100	–	> 100	–	> 100	–	> 100	–	> 100	–	–
CC12OC(C(=O)C13CCC3)C1C(=O)c3ccccc3C(=O)C12 (configuration not stated)	> 100 µM	> 100	> 100 µM	> 100	> 100 µM	> 100	> 100 µM	> 100	> 100 µM	> 100	> 100 µM	> 100	–	–	58.1 µM	> 100	76.7 µM	> 100	–	–
O=[N+]([O-])C1C2C=CC(C2)[C@H]1c1ccc(Cl)cc1Cl (some centres not stated)	–	> 100	–	> 100	–	–	–	57.4	–	67.2	–	> 100	–	> 100	–	> 100	–	> 100	–	74.1
COc1cc2cccc(N=Cc3c(Br)ccc(OC)c3OC(C)C)c2cc1OC	–	> 100	–	> 100	–	> 100	–	93.7	–	> 100	–	> 100	–	> 100	–	92.9	–	> 100	–	–
COc1ccc(C2ONC3=NCCN32)cc1 (configuration not stated)	86.9 µM	> 100	84.8 µM	> 100	> 100 µM	> 100	68.8 µM	> 100	–	–	37.1 µM	> 100	46.8 µM	> 100	38.3 µM	> 100	52.8 µM	> 100	> 100	> 100

— PubChem BioAssay (NCI)
